In publication PMC7824787, “Design, Synthesis and In Vitro Investigation of Novel Basic Celastrol Carboxamides as Bio-Inspired Leishmanicidal Agents Endowed with Inhibitory Activity against Leishmania Hsp90” (Biomolecules, 2021):
Like-named read-outs stand apart in the source and are kept apart here.

Assays:
[1] = tested on: THP-1; assay: Cytotoxicity on THP-1 (MTT); type: cell-based, human; conditions: Homo sapiens, THP-1; PMA-differentiated, 72 h, MTT; read-out: Healthy Cell Lines IC50, THP-1
Experimental: Cytotoxicity was evaluated on human microvascular endothelial cells (HMEC-1, provided by the Centers for Disease Control, Atlanta, GA, USA), on immortalized mouse C57Bl/6 bone marrow derived macrophages (BMDM) from wild type lineage (generated in the laboratories of Drs. Douglas Golenbock and Kate Fitzgerald, University of Massachusetts, Worcester, MA, USA) and on a human acute monocytic leukaemia cell line (THP-1).
HMEC-1 were maintained in MCDB 131 medium (Invitrogen, Milan, Italy) supplemented with 10% fetal calf serum (HyClone), 10 ng/mL of epidermal growth factor, 1 μg/mL of hydrocortisone, 2 mM glutamine and 20 mM HEPES buffer, at 37 °C in 5% CO2. BMDM were maintained in DMEM (Euroclone) medium supplemented with 10% fetal bovine serum (HyClone, Celbio, Milan, Italy), 2 mM glutamine, and 25 mM of HEPES buffer solution (Euroclone). THP-1 were maintained in RPMI supplemented with 10% heat-inactivated FCS, 50 µM 2-mercaptoethanol, 10 µM sodium pyruvate, 20 mM HEPES, and 2 mM glutamine. In order to achieve differentiation into macrophages, cells were treated with 10 ng/mL phorbol myristate acetate (PMA) for 72 h.
For the cytotoxicity assay, cells were seeded in 96 well flat bottom tissue culture clusters (Costar, New York, NY, USA) at the following concentrations: HMEC 10^5 cell/mL, BMDM at 10^6 cell/mL, THP1 at 5 × 10^5 cell/mL. After 24 h, cells were treated with serial dilutions of test compounds in a final volume of 200 µL/well. Cell proliferation was evaluated after 72 h using the MTT assay.
The absorbances were measured with a microplate spectrophotometer (Synergy 4-Biotek) at a test wavelength of 550 nm and a reference wavelength of 650 nm. The results are expressed as IC50 as the concentration inhibiting 50% of cell growth. Each IC50 value is the mean and standard deviation of at least three separate experiments performed in duplicate.

[2] = tested on: L. tropica promastigotes; assay: Antileishmanial activity on L. tropica promastigotes (MTT); type: cell-based
Experimental: Promastigote stage of L. infantum (MHOM/TN/80/IPT1, kindly provided by Dr. M. Gramiccia and Dr. T. Di Muccio, ISS, Roma) and L. tropica (MHOM/SY/2012/ISS3130) were cultured in RPMI 1640 medium (EuroClone) supplemented with 15% heat-inactivated fetal calf serum (EuroClone, Milan, Italy), 20 mM HEPES, and 2 mM L-glutamine at 23 °C. The MTT (3-[4.5-dimethylthiazol-2-yl]-2.5-diphenyltetrazolium bromide) method was used to estimate the 50% inhibitory concentration (IC50), with some modifications. Compounds were dissolved in DMSO and then diluted with medium to achieve the required concentrations. Test compounds were placed in 96 wells round bottom microplates and seven serial dilutions made. Amphotericin B was used as the reference antileishmanial drug. Parasites were diluted in complete medium to 5 × 10^6 parasites/mL and 100 μL of the suspension was seeded into the plates and incubated at 23 °C for 72 h. Then 20 μL of MTT solution (5 mg/mL) was added into each well, after 3 h the plates were centrifuged, the supernatants discarded and the resulting pellets dissolved in 100 μL of lysing buffer consisting of 20% (w/v) of a solution of SDS (Sigma), 40% of N,N-dimethylformamide (Merck) in H2O. The absorbance of the obtained solutions was measured at a wavelength of 550 nm with a reference at 650 nm with a microplate spectrophotometer (Synergy 4-Biotek, Milan, Italy) and analyzed with the Gen5® software for data processing.
The results are expressed as IC50, the dose of compound that is necessary to inhibit cell growth by 50%; each IC50 value is the mean ± standard deviation of at least three separate experiments performed in duplicate.

[3] = tested on: L. infantum promastigotes; assay: Morphological differentiation of Leishmania promastigotes; type: cell-based, Leishmania infantum; conditions: 50 ng/mL, 23 °C, 48 h (Figure 6)
Experimental: L. infantum promastigotes were diluted in complete medium to 4 × 10^7 parasites/mL and 250 µL of the suspension were seeded into the 24 wells plates and incubated at 23 °C in the presence of geldanamycin, CE or compound 2 at the final concentration of 50 ng/mL. Cultures without drugs incubated at 23 °C or at 37 °C were used as negative and positive control, respectively. After 24 or 48 h of incubation, parasite morphology was evaluated by optical microscopy at 100× (Eclipse Ti Series, Nikon, Minato, Tokyo, Japan) on Giemsa stained smears (a mixture of eosin, methylene blue and Azure-B diluted 1:10). The percent of round promastigotes in treated and non-treated cells was determined. Images were taken at the same magnification by using a digital camera (Nikon Digital Sight). About 500 promastigotes were counted in 4 random fields.
The compounds were incubated (23 °C, physiological pH) with L. infantum promastigotes at a sub-IC50 concentration of 50 ng/mL. […] After 24 h and 48 h the presence of round, amastigote-like cells, was monitored (Figure 6). A negative and positive control experiment (NC and PC, Figure 6a,b) were also conducted growing the promastigotes at 23 °C and 37 °C, respectively.

[4] = tested on: L. infantum promastigotes; assay: Antileishmanial activity on L. infantum promastigotes (MTT); type: cell-based
[5] = tested on: L. infantum amastigotes; assay: Antileishmanial activity on intramacrophage amastigotes of L. infantum; type: cell-based, Leishmania infantum; conditions: Leishmania infantum; infected THP-1 macrophages, 72 h
Experimental: Cell monolayers were then washed and incubated in the presence of test compounds for 72 h. Slides were fixed with methanol and stained with Giemsa. The percentage of infected macrophages in treated and non-treated cells was determined by light microscopy.

[6] = 72 h, 23 °C, MTT; read-out: Leishmania Promastigotes IC50, L. tropica
[7] = Leishmania tropica, 72 h, 23 °C, MTT, read-out: Leishmania Promastigotes IC50, L. tropica
[8] = 72 h, 23 °C, MTT; read-out: Leishmania Promastigotes IC50, L. infantum
[9] = Leishmania infantum, 72 h, 23 °C, MTT, read-out: Leishmania Promastigotes IC50, L. infantum

Row | IC50 [2, 6] [nM] | IC50 [2, 7] [nM] | IC50 [4, 8] [nM] | IC50 [4, 9] [nM] | IC50 [5] [nM] | melting point [°C] | Compound | IC50 [1] [nM] | IC50 ([2]; Leishmania tropica; 72 h, 23 °C, MTT; read-out: Leishmania Promastigotes IC50, L. tropica) [nM] | round amastigote-like cells (morphological differentiation) [3] | IC50 ([4]; Leishmania infantum; 72 h, 23 °C, MTT; read-out: Leishmania Promastigotes IC50, L. infantum) [nM]
1 |  |  |  |  |  |  | CC1=C(O)C(=O)C=C2C1=CC=C1[C@@]2(C)CC[C@@]2(C)[C@@H]3C[C@](C)(C(=O)O)CC[C@]3(C)CC[C@]12C [CE, celastrol] | 900 ± 300 | 490 ± 170 | neither CE nor compound 3 produced this effect | 210 ± 70
2 | 3070 ± 1360 | 2000 to 4000 | 2310 ± 280 | 2000 to 4000 |  |  | CC1=C(O)C(=O)C=C2C1=CC=C1[C@@]2(C)CC[C@@]2(C)[C@@H]3C[C@](C)(C(=O)NCCSS(C)(=O)=O)CC[C@]3(C)CC[C@]12C [compound 9, S-(2-((2R,4aS,6aS,12bR,14aS,14bR)-10-hydroxy-2,4a,6a,9,12b,14a-hexamethyl-11-oxo-1,2,3,4,4a,5,6,6a,11,12b,13,14,14a,14b-tetradecahydropicene-2-carboxamido)ethyl) methanesulfonothioate] | 3280 ± 900 |  |  | 
3 |  | 120 ± 50 |  | 120 ± 20 | 520 ± 280 | 250.8 to 254.7 | CC1=C(O)C(=O)C=C2C1=CC=C1[C@@]2(C)CC[C@@]2(C)[C@@H]3C[C@](C)(C(=O)NCC45CCCN4CCC5)CC[C@]3(C)CC[C@]12C [compound 5, (2R,4aS,6aS,12bR,14aS,14bR)-N-((hexahydro-1H-pyrrolizin-7a-yl)methyl)-10-hydroxy-2,4a,6a,9,12b,14a-hexamethyl-11-oxo-1,2,3,4,4a,5,6,6a,11,12b,13,14,14a,14b-tetradecahydropicene-2-carboxamide] | 1880 ± 340 |  |  | 
4 |  | 90 ± 30 |  | 60 ± 20 | 190 ± 110 | 137 to 138.6 | CC1=C(O)C(=O)C=C2C1=CC=C1[C@@]2(C)CC[C@@]2(C)[C@@H]3C[C@](C)(C(=O)NCCN4CCCCC4)CC[C@]3(C)CC[C@]12C [compound 1, (2R,4aS,6aS,12bR,14aS,14bR)-10-hydroxy-2,4a,6a,9,12b,14a-hexamethyl-11-oxo-N-(2-(piperidin-1-yl)ethyl)-1,2,3,4,4a,5,6,6a,11,12b,13,14,14a,14b-tetradecahydropicene-2-carboxamide] | 2080 ± 240 |  |  | 
5 | 80 ± 40 | < 100 | 60 ± 10 | < 100 | 130 ± 90 | 135.6 to 138 | CC1=C(O)C(=O)C=C2C1=CC=C1[C@@]2(C)CC[C@@]2(C)[C@@H]3C[C@](C)(C(=O)NCCN4CCCC4)CC[C@]3(C)CC[C@]12C [compound 3, (2R,4aS,6aS,12bR,14aS,14bR)-10-hydroxy-2,4a,6a,9,12b,14a-hexamethyl-11-oxo-N-(2-(pyrrolidin-1-yl)ethyl)-1,2,3,4,4a,5,6,6a,11,12b,13,14,14a,14b-tetradecahydropicene-2-carboxamide] | 2790 ± 440 |  | neither CE nor compound 3 produced this effect | 
6 |  | 140 ± 30 |  | 90 ± 30 | 660 ± 60 | 165.7 to 167.9 | CC1=C(O)C(=O)C=C2C1=CC=C1[C@@]2(C)CC[C@@]2(C)[C@@H]3C[C@](C)(C(=O)NCCNc4ccnc5cc(Cl)ccc45)CC[C@]3(C)CC[C@]12C [compound 6, (2R,4aS,6aS,12bR,14aS,14bR)-N-(2-((7-chloroquinolin-4-yl)amino)ethyl)-10-hydroxy-2,4a,6a,9,12b,14a-hexamethyl-11-oxo-1,2,3,4,4a,5,6,6a,11,12b,13,14,14a,14b-tetradecahydropicene-2-carboxamide] | 850 ± 240 |  |  | 
